Results published in BindingDB's records for doi:10.1074/jbc.270.11.6056 (Medical Research Council Centre, 1995).
pKi: −log10 of the molar value. Counter-ions that a name gives are not always drawn.

Molecular target: T1, 5-hydroxytryptamine receptor 3A (Mus musculus, UniProt P23979)
T1 sequence (P23979 whole entry): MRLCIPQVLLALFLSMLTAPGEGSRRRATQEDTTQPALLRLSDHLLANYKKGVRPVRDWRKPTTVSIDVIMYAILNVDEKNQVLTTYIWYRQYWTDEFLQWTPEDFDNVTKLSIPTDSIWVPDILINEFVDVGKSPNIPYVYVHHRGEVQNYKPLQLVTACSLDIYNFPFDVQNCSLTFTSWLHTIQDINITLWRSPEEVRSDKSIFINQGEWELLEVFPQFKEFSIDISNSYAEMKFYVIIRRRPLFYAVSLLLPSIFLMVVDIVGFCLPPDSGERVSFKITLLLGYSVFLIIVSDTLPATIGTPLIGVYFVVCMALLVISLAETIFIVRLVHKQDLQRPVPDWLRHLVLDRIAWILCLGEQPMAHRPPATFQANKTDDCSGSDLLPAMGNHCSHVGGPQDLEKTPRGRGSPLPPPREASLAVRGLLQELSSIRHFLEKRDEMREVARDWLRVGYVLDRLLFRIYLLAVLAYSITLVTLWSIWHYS

Structure (SMILES) | pKi
N=C(N)NC(=N)Nc1cccc(Cl)c1 [1-(3-CHLOROPHENYL)BIGUANIDE HYDROCHLORIDE] | 9.03
Cc1nc[nH]c1CCC(=O)c1cc2ccccc2n1C [CAS_124006] | 9.68
CN1C2CCC1CC(OC(=O)c1cc(Cl)cc(Cl)c1)C2 (stereo not drawn) [MDL 72222] | 7.89
